PubChem BioAssay AID2060888 (Molecular Pharmacology Branch, DTP, NCI, 2025)

Test system: 695427-040-R-J1-PDC complex spheroid viability
Assay: Anticancer human tumor 695427-040-R-J1-PDC patient-derived colon adenocarcinoma cell line growth inhibition [RAS]
Conditions: for IC50: curve of first compound; for viability, T/C: stronger effect = lower value
Procedure, shortened: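 Tumour cells grown as complex spheroids with HUVEC endothelial cells and mesenchymal stem cells, treated with RAS pathway inhibitor combinations. Each agent spans half-log steps from near clinical Cmax, or 10 microM where Cmax is unknown.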

[1] = second compound 0.000949 µM, first compound 0.0316 µM
[2] = second compound 0.000949 µM, first compound 0.1 µM
[3] = second compound 0.000949 µM, first compound 0.316 µM
[4] = second compound 0.000949 µM, first compound 1 µM
[5] = second compound 0.000949 µM, first compound 3.16 µM
[6] = second compound 0.000949 µM, first compound 10 µM
[7] = second compound 0.003 µM, first compound 0.0316 µM
[8] = second compound 0.003 µM, first compound 0.1 µM
[9] = second compound 0.003 µM, first compound 0.316 µM
[10] = second compound 0.003 µM, first compound 1 µM
[11] = second compound 0.003 µM, first compound 3.16 µM
[12] = second compound 0.003 µM, first compound 10 µM
[13] = second compound 0.00949 µM, first compound 0.0316 µM
[14] = second compound 0.00949 µM, first compound 0.1 µM
[15] = second compound 0.00949 µM, first compound 0.316 µM
[16] = second compound 0.00949 µM, first compound 1 µM
[17] = second compound 0.00949 µM, first compound 3.16 µM
[18] = second compound 0.00949 µM, first compound 10 µM
[19] = second compound 0.03 µM, first compound 0.0316 µM
[20] = second compound 0.03 µM, first compound 0.1 µM
[21] = second compound 0.03 µM, first compound 0.316 µM
[22] = second compound 0.03 µM, first compound 1 µM
[23] = second compound 0.03 µM, first compound 3.16 µM
[24] = second compound 0.03 µM, first compound 10 µM
[25] = second compound 0.0949 µM, first compound 0.0316 µM
[26] = second compound 0.0949 µM, first compound 0.1 µM
[27] = second compound 0.0949 µM, first compound 0.316 µM
[28] = second compound 0.0949 µM, first compound 1 µM
[29] = second compound 0.0949 µM, first compound 3.16 µM
[30] = second compound 0.0949 µM, first compound 10 µM
[31] = second compound 0.3 µM, first compound 0.0316 µM
[32] = second compound 0.3 µM, first compound 0.1 µM
[33] = second compound 0.3 µM, first compound 0.316 µM
[34] = second compound 0.3 µM, first compound 1 µM
[35] = second compound 0.3 µM, first compound 3.16 µM
[36] = second compound 0.3 µM, first compound 10 µM
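Note: viability read after seven days of drug exposure.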
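Throughout, for viability, T/C: 100% = DMSO vehicle control viability.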

Which results are given for `CC(C)NCC(C(=O)N1CCN(c2ncnc3c2C(C)CC3O)CC1)c1ccc(Cl)cc1` (stereo unspecified) + CCn1c(-c2cccnc2C(C)OC)c2c3cc(ccc31)N1CCOC(CC(NC(=O)C(C(C)C)N(C)C(=O)C3(F)CCN(C(=O)C#CC(C)(C)N(C)C)CC3)C(=O)N3CCCC(N3)C(=O)OCC(C)(C)C2)C1?
IC50 (second compound 0.000949 µM): > 10 µM; IC50 (second compound 0.003 µM): > 10 µM; IC50 (second compound 0.00949 µM): > 10 µM; IC50 (second compound 0.03 µM): > 10 µM; IC50 (second compound 0.0949 µM): > 10 µM; IC50 (second compound 0.3 µM): > 10 µM; viability, T/C [1]: 86%; viability, T/C [2]: 91.1%; viability, T/C [3]: 91.7%; viability, T/C [4]: 68.2%; viability, T/C [5]: 62.6%; viability, T/C [6]: 60.8%; viability, T/C [7]: 103%; viability, T/C [8]: 91.4%; viability, T/C [9]: 65.9%; viability, T/C [10]: 84.7%; viability, T/C [11]: 74.7%; viability, T/C [12]: 54.6%; viability, T/C [13]: 113%; viability, T/C [14]: 89.5%; viability, T/C [15]: 59.9%; viability, T/C [16]: 85.2%; viability, T/C [17]: 63.4%; viability, T/C [18]: 63.5%; viability, T/C [19]: 91.6%; viability, T/C [20]: 75.3%; viability, T/C [21]: 81.5%; viability, T/C [22]: 83.8%; viability, T/C [23]: 59.2%; viability, T/C [24]: 56.9%; viability, T/C [25]: 88.5%; viability, T/C [26]: 88.7%; viability, T/C [27]: 72.6%; viability, T/C [28]: 70.8%; viability, T/C [29]: 77.1%; viability, T/C [30]: 71.2%; viability, T/C [31]: 105%; viability, T/C [32]: 72.8%; viability, T/C [33]: 79.8%; viability, T/C [34]: 74.2%; viability, T/C [35]: 57%; viability, T/C [36]: 56.2%

How did the IC50 (second compound 0.000949 µM) turn out when `CC(C)n1nc(-c2ccc3oc(N)nc3c2)c2c(N)ncnc21` + CCn1c(-c2cccnc2C(C)OC)c2c3cc(ccc31)N1CCOC(CC(NC(=O)C(C(C)C)N(C)C(=O)C3(F)CCN(C(=O)C#CC(C)(C)N(C)C)CC3)C(=O)N3CCCC(N3)C(=O)OCC(C)(C)C2)C1 was run?
The IC50 was over 0.1 µM.

What about the IC50 (second compound 0.003 µM) of the same compound?
Its IC50 is over 0.1 µM.

What about the IC50 (second compound 0.00949 µM) of the same compound?
Its IC50 is over 0.1 µM.

What about the IC50 (second compound 0.03 µM) of the same compound?
The IC50 was over 0.1 µM.

What about the IC50 (second compound 0.0949 µM) of the same compound?
Its IC50 is 0.0953 µM.

And the IC50 (second compound 0.3 µM)?
The IC50 was 0.0897 µM.

And the viability, T/C (second compound 0.000949 µM, first compound 0.000316 µM)?
The viability, T/C was 107%.

What about the viability, T/C (second compound 0.000949 µM, first compound 0.001 µM) of the same compound?
The viability, T/C was 120%.

And the viability, T/C (second compound 0.000949 µM, first compound 0.00316 µM)?
The viability, T/C was 78.7%.

What about the viability, T/C (second compound 0.000949 µM, first compound 0.01 µM) of the same compound?
The viability, T/C was 90.6%.

And the viability, T/C [1]?
The viability, T/C was 74.3%.

And the viability, T/C [2]?
The viability, T/C was 56.2%.

And the viability, T/C (second compound 0.003 µM, first compound 0.000316 µM)?
Its viability, T/C is 107%.

What about the viability, T/C (second compound 0.003 µM, first compound 0.001 µM) of the same compound?
The viability, T/C was 84.3%.

And the viability, T/C (second compound 0.003 µM, first compound 0.00316 µM)?
Its viability, T/C is 98.6%.

And the viability, T/C (second compound 0.003 µM, first compound 0.01 µM)?
The viability, T/C was 83.5%.

And the viability, T/C [7]?
The viability, T/C was 62.1%.

And the viability, T/C [8]?
The viability, T/C was 57.3%.

What about the viability, T/C (second compound 0.00949 µM, first compound 0.000316 µM) of the same compound?
Its viability, T/C is 110%.

And the viability, T/C (second compound 0.00949 µM, first compound 0.001 µM)?
The viability, T/C was 89.7%.

And the viability, T/C (second compound 0.00949 µM, first compound 0.00316 µM)?
The viability, T/C was 85.5%.

What about the viability, T/C (second compound 0.00949 µM, first compound 0.01 µM) of the same compound?
Its viability, T/C is 74.2%.

What about the viability, T/C [13] of the same compound?
The viability, T/C was 73.5%.

What about the viability, T/C [14] of the same compound?
Its viability, T/C is 56.5%.

And the viability, T/C (second compound 0.03 µM, first compound 0.000316 µM)?
Its viability, T/C is 108%.

And the viability, T/C (second compound 0.03 µM, first compound 0.001 µM)?
The viability, T/C was 80.2%.

And the viability, T/C (second compound 0.03 µM, first compound 0.00316 µM)?
The viability, T/C was 66%.

And the viability, T/C (second compound 0.03 µM, first compound 0.01 µM)?
Its viability, T/C is 78.3%.

And the viability, T/C [19]?
Its viability, T/C is 77.7%.

And the viability, T/C [20]?
The viability, T/C was 62.5%.

What about the viability, T/C (second compound 0.0949 µM, first compound 0.000316 µM) of the same compound?
The viability, T/C was 86.1%.

And the viability, T/C (second compound 0.0949 µM, first compound 0.001 µM)?
Its viability, T/C is 79.2%.

What about the viability, T/C (second compound 0.0949 µM, first compound 0.00316 µM) of the same compound?
Its viability, T/C is 66.8%.

What about the viability, T/C (second compound 0.0949 µM, first compound 0.01 µM) of the same compound?
Its viability, T/C is 76.9%.

And the viability, T/C [25]?
The viability, T/C was 73.4%.

What about the viability, T/C [26] of the same compound?
The viability, T/C was 48.9%.

And the viability, T/C (second compound 0.3 µM, first compound 0.000316 µM)?
Its viability, T/C is 83.2%.

And the viability, T/C (second compound 0.3 µM, first compound 0.001 µM)?
The viability, T/C was 104%.

And the viability, T/C (second compound 0.3 µM, first compound 0.00316 µM)?
Its viability, T/C is 81%.

And the viability, T/C (second compound 0.3 µM, first compound 0.01 µM)?
The viability, T/C was 74.8%.

What about the viability, T/C [31] of the same compound?
Its viability, T/C is 64.5%.

What about the viability, T/C [32] of the same compound?
Its viability, T/C is 48%.

For `C[C@@H](NC(=O)c1ncnc(N)c1Cl)c1ncc(C(=O)Nc2cc(C(F)(F)F)c(Cl)cn2)s1` + CCn1c(-c2cccnc2C(C)OC)c2c3cc(ccc31)N1CCOC(CC(NC(=O)C(C(C)C)N(C)C(=O)C3(F)CCN(C(=O)C#CC(C)(C)N(C)C)CC3)C(=O)N3CCCC(N3)C(=O)OCC(C)(C)C2)C1, which IC50 (second compound 0.000949 µM) is on record?
Its IC50 is over 10 µM.

And the IC50 (second compound 0.003 µM)?
The IC50 was over 10 µM.

What about the IC50 (second compound 0.00949 µM) of the same compound?
The IC50 was over 10 µM.

And the IC50 (second compound 0.03 µM)?
The IC50 was over 10 µM.

And the IC50 (second compound 0.0949 µM)?
Its IC50 is over 10 µM.

What about the IC50 (second compound 0.3 µM) of the same compound?
The IC50 was over 10 µM.

What about the viability, T/C [1] of the same compound?
Its viability, T/C is 86.3%.

And the viability, T/C [2]?
The viability, T/C was 99.1%.

What about the viability, T/C [3] of the same compound?
The viability, T/C was 92.7%.

What about the viability, T/C [4] of the same compound?
The viability, T/C was 106%.

What about the viability, T/C [5] of the same compound?
The viability, T/C was 96.8%.

And the viability, T/C [6]?
The viability, T/C was 85.7%.

What about the viability, T/C [7] of the same compound?
Its viability, T/C is 82.2%.

What about the viability, T/C [8] of the same compound?
Its viability, T/C is 93.6%.

What about the viability, T/C [9] of the same compound?
The viability, T/C was 113%.

What about the viability, T/C [10] of the same compound?
Its viability, T/C is 98.3%.

And the viability, T/C [11]?
The viability, T/C was 99.2%.

What about the viability, T/C [12] of the same compound?
Its viability, T/C is 68.5%.

And the viability, T/C [13]?
Its viability, T/C is 96.3%.

And the viability, T/C [14]?
The viability, T/C was 81.6%.

And the viability, T/C [15]?
Its viability, T/C is 105%.

And the viability, T/C [16]?
The viability, T/C was 80.2%.

And the viability, T/C [17]?
Its viability, T/C is 102%.

What about the viability, T/C [18] of the same compound?
The viability, T/C was 78.1%.

And the viability, T/C [19]?
The viability, T/C was 81%.

What about the viability, T/C [20] of the same compound?
The viability, T/C was 99%.

What about the viability, T/C [21] of the same compound?
Its viability, T/C is 115%.

And the viability, T/C [22]?
The viability, T/C was 97.5%.

And the viability, T/C [23]?
Its viability, T/C is 104%.

What about the viability, T/C [24] of the same compound?
The viability, T/C was 82.4%.

What about the viability, T/C [25] of the same compound?
Its viability, T/C is 67.9%.

What about the viability, T/C [26] of the same compound?
Its viability, T/C is 97.3%.

What about the viability, T/C [27] of the same compound?
Its viability, T/C is 96.6%.

And the viability, T/C [28]?
The viability, T/C was 104%.

What about the viability, T/C [29] of the same compound?
The viability, T/C was 89.8%.

What about the viability, T/C [30] of the same compound?
Its viability, T/C is 67.1%.

What about the viability, T/C [31] of the same compound?
Its viability, T/C is 78.8%.

And the viability, T/C [32]?
The viability, T/C was 94.4%.

And the viability, T/C [33]?
Its viability, T/C is 94.7%.

And the viability, T/C [34]?
The viability, T/C was 98%.

What about the viability, T/C [35] of the same compound?
The viability, T/C was 97.8%.

What about the viability, T/C [36] of the same compound?
The viability, T/C was 67.9%.
